Laboratory results: patent publication US20030162834A1, “Natural physiologically active material effective on fish diseases and fish food containing the material” (priority 1998, published 2003)

Key:
Edwardsiella tarda = test: Trial 11: turbidimetric antibacterial assay; type: cell-based; conditions: 500 ppm in BHI liquid culture medium, 13 hours, 23 degrees centigrade
Protocol: (§1) The turbidimetric analysis was employed. Fatty acids of C2, C4, C6-C10 were each dissolved in 2 ml of BHI liquid culture medium at 500 ppm concentration. A number 1×10^5 of typical bacteria (Vibrio anguillarum, Edwardsiella tarda and Enterococcus seriolicida) causing the fish bacterial diseases were inoculated in each adjusted culture medium, followed by cultivation for 13 hours at 23 degrees centigrade. After the cultivation, turbidity of the culture medium was measured at 600 nm to determine the amount of multiplied bacteria. The trial was conducted two times. Results are shown in FIG. 19 (Vibrio anguillarum), FIG. 20 (Edwardsiella tarda), and FIG. 21 (Enterococcus seriolicida).

Enterococcus seriolicida = test: Trial 11: turbidimetric antibacterial assay; type: cell-based; conditions: 500 ppm in BHI liquid culture medium, 13 hours, 23 degrees centigrade
Protocol: as §1

Vibrio anguillarum = test: Trial 11: turbidimetric antibacterial assay; type: cell-based; conditions: 500 ppm in BHI liquid culture medium, 13 hours, 23 degrees centigrade
Protocol: as §1

[1] = tested on: parasites (Heterobothrium okamotoi, Cryptocaryon irritans); test: Trial 1: overall statements on efficacy of fatty acids against parasites; type: cell-based; conditions: Trial 1 summary; C12 at a low concentration, not the same condition
Protocol: Fatty acids having carbon number C2, C4 and C6-C10 were each dissolved in seawater at 1 mM concentration, and oncomiracidia of Heterobothrium okamotoi and larvae attaching to the gill were immersed in the seawater solutions. After 2 hours from the start of immersion, the efficacy of the fatty acids was investigated by counting the number of dead oncomiracidia and the number of larvae dropping down from the gill. More than 30 individuals of parasites were transferred to each group.
For Cryptocaryon irritans, fatty acids having carbon number C2, C4 and C6-C10 were each dissolved in seawater at 0.5 mM concentration, and theronts of Cryptocaryon irritans were immersed in the seawater solutions. After 1 hour from the start of immersion, the efficacy of the fatty acids was investigated by counting the number of dead theronts. More than 200 individuals of parasites were transferred to each group.
For any of the groups, the trial was made under condition of 20 degrees centigrade.

fish bacteria = test: Trial 11: overall statement on C12 against fish bacteria; type: cell-based; conditions: low concentration, not the same condition as 500 ppm
Protocol: The turbidimetric analysis was employed. […] A number 1×10^5 of typical bacteria (Vibrio anguillarum, Edwardsiella tarda and Enterococcus seriolicida) causing the fish bacterial diseases were inoculated in each adjusted culture medium, followed by cultivation for 13 hours at 23 degrees centigrade. After the cultivation, turbidity of the culture medium was measured at 600 nm to determine the amount of multiplied bacteria. The trial was conducted two times. Results are shown in FIG. 19 (Vibrio anguillarum), FIG. 20 (Edwardsiella tarda), and FIG. 21 (Enterococcus seriolicida).

Solubility = type: physicochemical
[2] = tested on: Vibrio sp. infection and gliding bacterium infection; test: Trial 12: bleeding trial on spotted plaice with occurred bacterial disease; type: in vivo
Source text: Spotted plaice weighing approximately 60 g in average was employed in this trial. Each 270 pieces of spotted plaice were put in off-shore net pens of 4×4×2.5 m, and bled for 100 days. […] The number of dead fish and the fish situations were observed. The fish were fed twice per day, i.e., in the morning and evening. The water temperature during the trial period was in the range of 14-17 degrees centigrade.

Heterobothrium okamotoi = conditions: drug bath about one hour, about 800 ppm formalin; cited from earlier work
Cryptocaryon irritans [3] = test: Trial 8: octanoic acid versus its monoglyceride and triglyceride, oral, red sea bream; type: in vivo; conditions: diet amount equal to 17.5 mM octanoic acid residues (2.5 g acid, 3.8 g monoglyceride, 2.7 g triglyceride per kg)
Source text: Fish tested: Red sea bream weighing approximately 15.8 g in average.
Trial groups: Four groups, i.e., an octanoic-acid added group in which fish were fed diets added with octanoic acid, a monoglyceride added group in which fish were fed diets added with monoglyceride of octanoic acid, a triglyceride added group in which fish were fed diets added with triglyceride of octanoic acid, and a control group in which fish were fed diets added with neither octanoic acid nor glycerides. The feeding rate was 3% of fish weight/day for each group.
Trial diets: The diets added with octanoic acid were prepared by spraying 2.5 g (17.5 mM with respect to the diet weight) of octanoic acid to 1 kg of commercially available pellets for red sea bream. […]. Specifically, the diets added with monoglyceride and triglyceride were prepared respectively by spraying 3.8 g of monoglyceride and 2.7 g of triglyceride to 1 kg of the commercially available pellets for red sea bream. The control group fish were fed the commercially available pellets for red sea bream.
Challenge trial: Each 10 pieces of fish from among a shoal of fish, in which no diseases such as Cryptocaryon irritans infection were found, were put in a 100-liter water tank, and were fed the respective trial diets. After 5 days, approximately 2000 individuals of theronts of Cryptocaryon irritans were put into each water tank to infect the fish while water flow was stopped for 1 hour. Then, bleeding was continued for 31 days while feeding the respective trial diets. During the trial period, the water temperature was 24+−1 degrees centigrade and the water was exchanged at 20 cycles/day.
Evaluation was made by sampling 5 pieces of fish from each group after 18 and 31 days from the start of the challenge, and comparing the number of the parasites attaching to the gill of each fish.

Cryptocaryon irritans [4] = test: In vitro assay of glycerides of octanoic acid against Cryptocaryon irritans; type: cell-based
[5] = diets containing 0.5% decanoic acid fed from the 64-th day

CCCCCCCCC(=O)O [C9, pelargonic acid]
antibacterial activity (turbidity at 600 nm) (Edwardsiella tarda): showed an antibacterial activity | antibacterial activity (turbidity at 600 nm) (Enterococcus seriolicida): showed an antibacterial activity | antibacterial activity (turbidity at 600 nm) (Vibrio anguillarum): showed an antibacterial activity

CCCCCCCCCCCC(=O)O [C12, lauric acid]
efficacy against parasites [1]: a similar activity was found even at a low concentration | antibacterial activity (fish bacteria): a similar activity was found even at a low concentration | solubility in seawater (Solubility; Trial 1 conditions (1 mM / 0.5 mM)): so low in solubility that the trial could not be made under the same condition | solubility in BHI liquid culture medium (Solubility; Trial 11 conditions (500 ppm)): so low in solubility that the trial could not be made under the same condition

CN(C)[C@@H]1C(O)=C(C(N)=O)C(=O)[C@@]2(O)C(O)=C3C(=O)c4c(O)cccc4[C@@](C)(O)[C@H]3[C@H](O)[C@@H]12 [OTC, exytetracycline, reference compound]
number of dead fish after application ([2]; OTC in diet 6 days (22-th to 27-th day), 0.5 g of 10% OTC/kg of fish weight): reduced | complete remedy of the Vibrio sp. infection ([2]; OTC in diet 6 days, 0.5 g of 10% OTC/kg of fish weight): not confirmed

CCCCCCCCCC(=O)O [decanoic acid]
antibacterial activity (turbidity at 600 nm) (Edwardsiella tarda): showed an antibacterial activity | antibacterial activity (turbidity at 600 nm) (Enterococcus seriolicida): showed an antibacterial activity | antibacterial activity (turbidity at 600 nm) (Vibrio anguillarum): showed an antibacterial activity | dead fish after the 72-th day from the start of the trial [2, 5]: no dead fish were found | fish suffering abrasion and bleeding due to the infections [2, 5]: not found | number of dead fish after feeding [2, 5]: apparently reduced

C=O [formalin]
effect on adult parasites (Heterobothrium okamotoi): cannot destroy adult parasites at all | larvae destroyed (Heterobothrium okamotoi): ≤ 80%

CCCCCCCC(=O)OCC(O)CO (stereo not drawn) [monoglyceride of octanoic acid]
number of parasites attaching to the gill after 18 and 31 days, versus control (Cryptocaryon irritans [3]): apparently fewer | antibacterial activity against Cryptocaryon irritans (Cryptocaryon irritans [4]): an antibacterial activity though at a lower level than octanoic acid

CCCCCCCC(=O)OCC(COC(=O)CCCCCCC)OC(=O)CCCCCCC [triglyceride of octanoic acid]
number of parasites attaching to the gill after 18 and 31 days, versus control (Cryptocaryon irritans [3]): apparently fewer | antibacterial activity against Cryptocaryon irritans (Cryptocaryon irritans [4]): no antibacterial activity
